From US6706663B2, “Herbicidal 3-heterocyclic substituted benzisothiazole and benzisoxazole compounds” (Wyeth, priority 2000, dated 2004)

Columns and labels:
GALAP (Galium aparine) [1] = experiment: Postemergence herbicidal evaluation; assay type: in vivo; details: postemergence
How it was run: (§1)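 Visual 0–9 injury scores versus control plants, covering stand, vigour, malformation, size, chlorosis and general appearance, taken four to five weeks post-spray and averaged over replicate tests. Plants were sprayed at roughly two weeks old and held on greenhouse benches.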

SETVI (Setaria viridis) [2] = experiment: Postemergence herbicidal evaluation; assay type: in vivo, (L.) Beau; details: postemergence
How it was run: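 First, seedlings are raised in flats for about two weeks. Next, compound dispersed in 50/50 acetone/water with 0.5% TWEEN 20 is sprayed at 40 psi to deliver about 0.0040–1.000 kg/ha. Plants are then maintained in the greenhouse and rated 0-9 after four to five weeks.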

[3] = system: GLXMAW (Soybean, Williams); experiment: Postemergence herbicidal evaluation; assay type: in vivo, Glycine max, (L.) Merr. cv Williams; details: postemergence
How it was run: as §1

GALAP (Galium aparine) [4] = experiment: Preemergence herbicidal evaluation; assay type: in vivo; details: rated 4-5 weeks after treatment
How it was run: (§2)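 Visual 0-9 rating versus untreated control, taken four to five weeks post-treatment, scoring stand, vigor, malformation, size, chlorosis and overall appearance. Compound applied as aqueous acetone spray to freshly seeded soil cups, then kept under standard greenhouse care.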

[5] = system: IPOHE (Ipomoea hederacea); experiment: Preemergence herbicidal evaluation; assay type: in vivo, (L.) Jacq.; details: rated 4-5 weeks after treatment
[6] = system: ECHCG (Echinochloa crus-galli); experiment: Preemergence herbicidal evaluation; assay type: in vivo, (L.) Beau; details: rated 4-5 weeks after treatment
How it was run: as §2

SETVI (Setaria viridis) [7] = experiment: Preemergence herbicidal evaluation; assay type: in vivo, (L.) Beau; details: rated 4-5 weeks after treatment
How it was run: as §2

[8] = system: GLXMAW (Soybean, Williams); experiment: Preemergence herbicidal evaluation; assay type: in vivo, Glycine max, (L.) Merr. cv Williams; details: rated 4-5 weeks after treatment
ZEAMX (Corn, Field) = experiment: Preemergence herbicidal evaluation; assay type: in vivo, Zea mays, L.; details: rated 4-5 weeks after treatment
CYPIR (Cyperus iria) = experiment: Flooded paddy, preemergence weed control; assay type: in vivo; details: rated 3-4 weeks after treatment, 0-9 rating scale
How it was run: (§3)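 Ratings of 0-9 reflect visual comparison with a control for stand, vigor, deformity, size, chlorosis and overall look. Propagules were placed in shallow silt loam (top 0.5 cm) under a continuous 1.5–3 cm flood and grown in the greenhouse.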

[9] = system: MOOVA (Monochoria vaginalis); experiment: Flooded paddy, preemergence weed control; assay type: in vivo, Presl.; details: rated 3-4 weeks after treatment, 0-9 rating scale
How it was run: as §3

SMILES	GALAP herbicidal rating (GALAP (Galium aparine) [1]; rate 0.0320 kg/ha)	GALAP herbicidal rating (GALAP (Galium aparine) [1]; rate 0.0620 kg/ha)	SETVI herbicidal rating (SETVI (Setaria viridis) [2]; rate 0.0320 kg/ha)	SETVI herbicidal rating (SETVI (Setaria viridis) [2]; rate 0.0620 kg/ha)	GLXMAW herbicidal rating ([3]; rate 0.0320 kg/ha)	GLXMAW herbicidal rating ([3]; rate 0.0620 kg/ha)	Preemergence herbicidal rating GALAP (GALAP (Galium aparine) [4]; Rate 0.0620 kg/ha)	Preemergence herbicidal rating GALAP (GALAP (Galium aparine) [4]; Rate 0.1250 kg/ha)	Preemergence herbicidal rating IPOHE ([5]; Rate 0.0620 kg/ha)	Preemergence herbicidal rating IPOHE ([5]; Rate 0.1250 kg/ha)	Preemergence herbicidal rating ECHCG ([6]; Rate 0.0620 kg/ha)	Preemergence herbicidal rating ECHCG ([6]; Rate 0.1250 kg/ha)	Preemergence herbicidal rating SETVI (SETVI (Setaria viridis) [7]; Rate 0.0620 kg/ha)	Preemergence herbicidal rating SETVI (SETVI (Setaria viridis) [7]; Rate 0.1250 kg/ha)	Preemergence herbicidal rating GLXMAW ([8]; Rate 0.0620 kg/ha)	Preemergence herbicidal rating GLXMAW ([8]; Rate 0.1250 kg/ha)	Preemergence herbicidal rating ZEAMX (ZEAMX (Corn, Field); Rate 0.0620 kg/ha)	Preemergence herbicidal rating ZEAMX (ZEAMX (Corn, Field); Rate 0.1250 kg/ha)	herbicidal rating, CYPIR (CYPIR (Cyperus iria); rate 0.0080 kg/ha)	herbicidal rating, CYPIR (CYPIR (Cyperus iria); rate 0.0320 kg/ha)	further results
COCC1COC(c2nsc3ccc(-n4c(=O)cc(C(F)(F)F)n(C)c4=O)cc23)O1 (stereo not drawn) [Compound 64, 3-[3-[4-(methoxymethyl)-1,3-dioxolan-2-yl]-1,2-benzisothiazol-5-yl]-1-methyl-6-(trifluoromethyl)uracil]	9.0	9.0	6.0	7.0	7.0	8.5	9.0	9.0	7.0	9.0	9.0	9.0	9.0	9.0	9.0	9.0	8.5	9.0	1.5	6.0	Preemergence herbicidal rating GALAP (GALAP (Galium aparine) [4]; Rate 0.2500 kg/ha): 9.0; Preemergence herbicidal rating IPOHE ([5]; Rate 0.2500 kg/ha): 9.0; Preemergence herbicidal rating ECHCG ([6]; Rate 0.2500 kg/ha): 9.0; Preemergence herbicidal rating SETVI (SETVI (Setaria viridis) [7]; Rate 0.2500 kg/ha): 9.0; Preemergence herbicidal rating GLXMAW ([8]; Rate 0.2500 kg/ha): 9.0; Preemergence herbicidal rating ZEAMX (ZEAMX (Corn, Field); Rate 0.2500 kg/ha): 9.0; herbicidal rating, CYPIR (CYPIR (Cyperus iria); rate 0.1250 kg/ha): 9.0; herbicidal rating, MOOVA ([9]; rate 0.0080 kg/ha): 0.0; herbicidal rating, MOOVA ([9]; rate 0.0320 kg/ha): 9.0; herbicidal rating, MOOVA ([9]; rate 0.1250 kg/ha): 9.0
CC1=CC(C)(C)OC(c2nsc3ccc(-n4c(=O)cc(C(F)(F)F)n(C)c4=O)cc23)C1 (stereo not drawn) [Compound 65, 3-[3-(3,6-dihydro-4,6,6-trimethyl-2H-pyran-2-yl)-1,2-benzisothiazol-5-yl]-1-methyl-6-(trifluoromethyl)uracil]	5.0	6.0	3.0	7.0	5.5	7.0	5.0	7.0	0.0	3.0	9.0	9.0	9.0	9.0	2.0	3.0	7.0	8.0	0.0	0.0	Preemergence herbicidal rating GALAP (GALAP (Galium aparine) [4]; Rate 0.2500 kg/ha): 7.0; Preemergence herbicidal rating IPOHE ([5]; Rate 0.2500 kg/ha): 9.0; Preemergence herbicidal rating ECHCG ([6]; Rate 0.2500 kg/ha): 9.0; Preemergence herbicidal rating SETVI (SETVI (Setaria viridis) [7]; Rate 0.2500 kg/ha): 9.0; Preemergence herbicidal rating GLXMAW ([8]; Rate 0.2500 kg/ha): 6.0; Preemergence herbicidal rating ZEAMX (ZEAMX (Corn, Field); Rate 0.2500 kg/ha): 9.0; herbicidal rating, CYPIR (CYPIR (Cyperus iria); rate 0.1250 kg/ha): 9.0; herbicidal rating, MOOVA ([9]; rate 0.0080 kg/ha): 0.0; herbicidal rating, MOOVA ([9]; rate 0.0320 kg/ha): 0.0; herbicidal rating, MOOVA ([9]; rate 0.1250 kg/ha): 3.0
C[C@@H]1C[C@H](C)OC(c2nsc3cc(F)c(-n4c(=O)cc(C(F)(F)F)n(C)c4=O)cc23)O1 (stereo partly drawn) [Compound 67, 3-[3-[(4R,6S)-4,6-dimethyl-m-dioxan-2-yl]-6-fluoro-1,2-benzisothiazol-5-yl]-1-methyl-6-(trifluoromethyl)uracil]	6.0	5.0	9.0	7.0	9.0	9.0	8.0	9.0	7.0	9.0	9.0	9.0	9.0	9.0	9.0	9.0	9.0	9.0	4.5	7.0	herbicidal rating, CYPIR (CYPIR (Cyperus iria); rate 0.1250 kg/ha): 9.0; herbicidal rating, MOOVA ([9]; rate 0.0080 kg/ha): 0.0; herbicidal rating, MOOVA ([9]; rate 0.0320 kg/ha): 9.0; herbicidal rating, MOOVA ([9]; rate 0.1250 kg/ha): 9.0
Cc1sccc1-c1nsc2ccc(-n3c(=O)cc(C(F)(F)F)n(C)c3=O)cc12 [Compound 68, 2,4(1H,3H)-pyrimidinedione, 1-methyl-3-[3-(2-methyl-3-thienyl)-1,2-benzisothiazol-5-yl]-6-(trifluoromethyl)-]	9.0	9.0	4.0	8.0	6.5	7.0	7.0	6.0	1.5	3.0	8.5	9.0	9.0	9.0	1.5	3.0	2.5	4.0	0.0	9.0	Preemergence herbicidal rating GALAP (GALAP (Galium aparine) [4]; Rate 0.2500 kg/ha): 9.0; Preemergence herbicidal rating IPOHE ([5]; Rate 0.2500 kg/ha): 4.5; Preemergence herbicidal rating ECHCG ([6]; Rate 0.2500 kg/ha): 9.0; Preemergence herbicidal rating SETVI (SETVI (Setaria viridis) [7]; Rate 0.2500 kg/ha): 9.0; Preemergence herbicidal rating GLXMAW ([8]; Rate 0.2500 kg/ha): 7.5; Preemergence herbicidal rating ZEAMX (ZEAMX (Corn, Field); Rate 0.2500 kg/ha): 6.0; herbicidal rating, CYPIR (CYPIR (Cyperus iria); rate 0.1250 kg/ha): 9.0; herbicidal rating, MOOVA ([9]; rate 0.0080 kg/ha): 7.0; herbicidal rating, MOOVA ([9]; rate 0.0320 kg/ha): 9.0; herbicidal rating, MOOVA ([9]; rate 0.1250 kg/ha): 9.0
Cn1c(C(F)(F)F)cc(=O)n(-c2ccc3snc(C4OCC5(CO4)CO5)c3c2)c1=O (stereo not drawn) [Compound 70, 1-methyl-3-(3-spiro[m-dioxane-5,2′-oxiran]-2-yl-1,2-benzisothiazol-5-yl)-6-(trifluoromethyl)uracil]	8.0	9.0	9.0	9.0	7.0	8.5	7.0	9.0	4.0	7.0	3.0	7.0	6.0	9.0	3.0	9.0	2.0	9.0	0.0	0.0	herbicidal rating, CYPIR (CYPIR (Cyperus iria); rate 0.1250 kg/ha): 0.0; herbicidal rating, MOOVA ([9]; rate 0.0080 kg/ha): 0.0; herbicidal rating, MOOVA ([9]; rate 0.0320 kg/ha): 0.0; herbicidal rating, MOOVA ([9]; rate 0.1250 kg/ha): 0.0
Cn1c(C(F)(F)F)cc(=O)n(-c2ccc3snc(C4OC(=O)C(C)(C)O4)c3c2)c1=O (stereo not drawn) [Compound 71, 3-[3-(4,4-dimethyl-5-oxo-1,3-dioxolan-2-yl)-1,2-benzisothiazol-5-yl]-1-methyl-6-(trifluoromethyl)uracil]	2.0	7.0	2.0	7.0	4.5	4.5	6.0	9.0	7.0	9.0	5.5	8.0	8.0	9.0	2.5	4.5	5.5	8.0	0.0	0.0	Preemergence herbicidal rating GALAP (GALAP (Galium aparine) [4]; Rate 0.2500 kg/ha): 9.0; Preemergence herbicidal rating IPOHE ([5]; Rate 0.2500 kg/ha): 9.0; Preemergence herbicidal rating ECHCG ([6]; Rate 0.2500 kg/ha): 8.0; Preemergence herbicidal rating SETVI (SETVI (Setaria viridis) [7]; Rate 0.2500 kg/ha): 9.0; Preemergence herbicidal rating GLXMAW ([8]; Rate 0.2500 kg/ha): 6.0; Preemergence herbicidal rating ZEAMX (ZEAMX (Corn, Field); Rate 0.2500 kg/ha): 8.5; herbicidal rating, CYPIR (CYPIR (Cyperus iria); rate 0.1250 kg/ha): 0.0; herbicidal rating, MOOVA ([9]; rate 0.0080 kg/ha): 0.0; herbicidal rating, MOOVA ([9]; rate 0.0320 kg/ha): 0.0; herbicidal rating, MOOVA ([9]; rate 0.1250 kg/ha): 0.0
